Assay results from patent US12714725B2, “Stabilization of selenite in a nutritional solution by dissolved oxygen” (BAXTER INTERNATIONAL INC., priority 2019, dated 2026).

Assays:
[1] = Stability of a mix of the 9 TE at pH 2.2 with 200 mM malic acid in a glass bottle; type: physicochemical; settings: heat sterilized, about 3 ppm dissolved oxygen; for Concentration recovered, T6 M 5° C. / Percentage of the recovered TE, T6 M 5° C.: 6 months at 5° C.; for Concentration recovered, T6 M 5° C. / Concentration recovered, T6 M 40° C.: pH 2.2, 200 mM malic acid; for Percentage of the recovered TE, T6 M 5° C. / Percentage of the recovered TE, T6 M 40° C.: relative to theoretical concentration; for Concentration recovered, T6 M 40° C. / Percentage of the recovered TE, T6 M 40° C.: 6 months at 40° C.
Protocol: The presence of oxygen promotes selenite stability. To ensure that it is not deleterious to another TE the stability of a mix of the 9 TE of interest (i.e. Zn, Cu, Cr, Mo, Mn, Fe, I, F & Se) was evaluated at pH 2.2 with 200 mM of malic acid (to ensure Iodide stability) and stored in a glass bottle (so containing about 3 ppm of dissolved oxygen). The solution was heat sterilized and stored 6 months at 40° C. or 5° C. (T6M 40° C. and T6M 5° C., respectively).

[2] = cited from earlier work
[3] = Full factorial DoE on the stability of Selenite (container material, pH, sterilization, storage temperature, dissolved oxygen); type: physicochemical
Protocol: A full factorial DoE was designed to evaluate the impact of five factors on the stability of Selenite:
Container material: an interaction between Selenite and plastic bags material was previously highlighted. To evaluate this factor a neutral material i.e. glass bottles was used as a comparison to plastic bags.
pH of the solution: all previous studies were conducted at pH<3.5 to ensure stability of Fe. A comparison with a native pH>7 obtained by simple dilution of Selenite into MilliQ water allowed to evaluate the impact of this parameter.
Sterilization: the terminal heat sterilization conducted on samples may initiate degradative chemical reactions by heat exposure. Unsterilized VS sterilized samples were compared regarding Selenite stability to assess the impact of this process step.
Storage temperature: accelerated stability studies are classically conducted at 40° C. However, selenite might be sensitive to it and a comparison with samples stored at 5° C. was conducted.
Dissolved oxygen content: oxygen is involved in many redox reactions most of the time deleterious for macro and micronutrients (particularly vitamins). To assess the impact of this parameter on Selenite stability, solutions of Selenite were flushed either with oxygen (up to saturation at about 8 ppm) or with nitrogen (DO<0.5 ppm).
All combinations of factors were produced and stored under appropriate conditions for 6 months. They were then submitted to several tests to evaluate the impact of each factor on several responses.
The following readouts were performed in order to assess the impact of the factors listed above:
Se assay to evaluate the degradation of Selenium.
Visual inspection of the samples to detect any precipitate, particles or discoloration.
pH measurement to evaluate the evolution of sample pH after 6 months storage.
Dissolved oxygen measurement to evaluate the evolution of the dissolved oxygen after 6 months of storage. […]

[Cl][Cr]([Cl])[Cl] [Cr, chromium chloride]
Concentration recovered, T6 M 5° C. [1]: 306 ng/mL
Percentage of the recovered TE, T6 M 5° C. [1]: 77.3%
Concentration recovered, T6 M 40° C. [1]: 329 ng/mL
Percentage of the recovered TE, T6 M 40° C. [1]: 83.1%
Chemical form; Solubility in water [2]: 585 mg/mL

[Cl][Cu][Cl] [Cu, copper chloride]
Concentration recovered, T6 M 5° C. [1]: 9784 ng/mL
Percentage of the recovered TE, T6 M 5° C. [1]: 81.1%
Concentration recovered, T6 M 40° C. [1]: 10504 ng/mL
Percentage of the recovered TE, T6 M 40° C. [1]: 87.1%
Chemical form; Solubility in water [2]: 706 mg/mL

[F-].[Na+] [F, sodium fluoride]
Percentage of the recovered TE, T6 M 5° C. [1]: 94%
Percentage of the recovered TE, T6 M 40° C. [1]: 88%

[I-].[K+] [I, potassium iodide]
Concentration recovered, T6 M 5° C. [1]: 3167 ng/mL
Percentage of the recovered TE, T6 M 5° C. [1]: 78.6%
Concentration recovered, T6 M 40° C. [1]: 3401 ng/mL
Percentage of the recovered TE, T6 M 40° C. [1]: 84.4%

[Na+].[Na+].[O]=[Mo](=[O])([O-])[O-] [Mo, sodium molybdate]
Concentration recovered, T6 M 5° C. [1]: 653 ng/mL
Percentage of the recovered TE, T6 M 5° C. [1]: 79.9%
Concentration recovered, T6 M 40° C. [1]: 707 ng/mL
Percentage of the recovered TE, T6 M 40° C. [1]: 86.6%

O=[Se](O)O [Selenite, sodium selenite]
Stability in solution ([3]; absence of stable amount of DO in the said range, storage for more than 1-3 months): instable
Stability in solution ([3]; products with stable DO concentration of above 0.5 ppm, specifically 0.5 ppm to 8 ppm): stable
Oxygen amount sufficient to ensure the stability of Selenite in solution ([3]; regression of Se assay against log dissolved oxygen, sterilized samples stored at 40° C. (FIG. 2)): around 0.5 ppm

[Cl-].[Cl-].[Zn+2] [Zn, zinc chloride]
Concentration recovered, T6 M 5° C. [1]: 158347 ng/mL
Percentage of the recovered TE, T6 M 5° C. [1]: 77.8%
Concentration recovered, T6 M 40° C. [1]: 171822 ng/mL
Percentage of the recovered TE, T6 M 40° C. [1]: 84.4%
Chemical form; Solubility in water [2]: 4.32 kg/L
